Test results from ChEMBL document CHEMBL4229434, “Design, synthesis, and evaluation of novel l-phenylglycine derivatives as potential PPARγ lead compounds” (Bioorg Med Chem, 2018).
Where “and” joins values, the source holds several entries; their conditions need not be identical. Equal values may be shown once.

Key:
Rattus norvegicus [1] = species on record: Rattus norvegicus; test: Inhibition of rat small intestine alpha-glucosidase at 10 ug/ml using maltose/glucose as substrate incubated for 10 mins followed by substrate addition measured after 10 mins relative to control
[2] = target: T1, Peroxisome proliferator-activated receptor gamma (Homo sapiens) (UniProt P37231); test: Agonist activity at PPARgamma in human HepG2 cells assessed as activation of PPRE at 10 ug/ml incubated for 24 hrs by dual luciferase reporter gene assay relative to control; type: cell-based
T1 sequence (whole entry): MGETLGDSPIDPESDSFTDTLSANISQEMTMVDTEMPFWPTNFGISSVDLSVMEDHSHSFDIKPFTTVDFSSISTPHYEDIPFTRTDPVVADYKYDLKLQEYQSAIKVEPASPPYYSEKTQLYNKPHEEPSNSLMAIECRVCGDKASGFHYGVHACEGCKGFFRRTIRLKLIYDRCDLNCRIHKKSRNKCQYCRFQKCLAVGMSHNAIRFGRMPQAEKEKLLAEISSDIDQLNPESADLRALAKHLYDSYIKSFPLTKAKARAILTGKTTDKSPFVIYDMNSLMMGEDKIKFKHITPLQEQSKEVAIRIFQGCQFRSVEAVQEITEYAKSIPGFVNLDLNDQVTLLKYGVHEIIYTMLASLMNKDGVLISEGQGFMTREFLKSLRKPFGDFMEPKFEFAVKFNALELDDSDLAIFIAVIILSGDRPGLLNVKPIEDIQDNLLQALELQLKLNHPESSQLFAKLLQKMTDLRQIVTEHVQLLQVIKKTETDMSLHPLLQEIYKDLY

[3] = target: Dipeptidyl peptidase 4 (Homo sapiens) (UniProt P27487); test: Inhibition of recombinant human C-terminal His-tagged DPP-4 (29 to 766 residues) expressed in Sf9 insect cells at 10 ug/ml using dipeptidyl peptidase […] as substrate incubated for 10 mins followed by substrate addition measured after 40 mins by fluorescence assay relative to control
[4] = target: T1, Peroxisome proliferator-activated receptor gamma (Homo sapiens); test: Agonist activity at PPARgamma in human HepG2 cells assessed as activation of PPRE at 10 ug/ml incubated for 24 hrs by dual luciferase reporter gene assay relative to pioglitazone; type: cell-based
Rattus norvegicus [5] = species on record: Rattus norvegicus; test: Inhibition of rat small intestine alpha-glucosidase at 3.74 umol/L using maltose/glucose as substrate incubated for 10 mins followed by substrate addition measured after 10 mins relative to control
[6] = target: T2, Peroxisome proliferator-activated receptor gamma (Homo sapiens, UniProt P37231); test: Agonist activity at PPARgamma in human HepG2 cells assessed as activation of PPRE incubated for 24 hrs by dual luciferase reporter gene assay; type: cell-based
T2 sequence (P37231 whole entry): T1 sequence (whole entry)

[7] = target: T1, Peroxisome proliferator-activated receptor gamma (Homo sapiens); test: Agonist activity at PPARgamma in human HepG2 cells assessed as activation of PPRE at 23.05 umol/L incubated for 24 hrs by dual luciferase reporter gene assay relative to control; type: cell-based

Sequence of Dipeptidyl peptidase 4 (Homo sapiens) (P27487 whole entry, looked up, the tested form may be a part): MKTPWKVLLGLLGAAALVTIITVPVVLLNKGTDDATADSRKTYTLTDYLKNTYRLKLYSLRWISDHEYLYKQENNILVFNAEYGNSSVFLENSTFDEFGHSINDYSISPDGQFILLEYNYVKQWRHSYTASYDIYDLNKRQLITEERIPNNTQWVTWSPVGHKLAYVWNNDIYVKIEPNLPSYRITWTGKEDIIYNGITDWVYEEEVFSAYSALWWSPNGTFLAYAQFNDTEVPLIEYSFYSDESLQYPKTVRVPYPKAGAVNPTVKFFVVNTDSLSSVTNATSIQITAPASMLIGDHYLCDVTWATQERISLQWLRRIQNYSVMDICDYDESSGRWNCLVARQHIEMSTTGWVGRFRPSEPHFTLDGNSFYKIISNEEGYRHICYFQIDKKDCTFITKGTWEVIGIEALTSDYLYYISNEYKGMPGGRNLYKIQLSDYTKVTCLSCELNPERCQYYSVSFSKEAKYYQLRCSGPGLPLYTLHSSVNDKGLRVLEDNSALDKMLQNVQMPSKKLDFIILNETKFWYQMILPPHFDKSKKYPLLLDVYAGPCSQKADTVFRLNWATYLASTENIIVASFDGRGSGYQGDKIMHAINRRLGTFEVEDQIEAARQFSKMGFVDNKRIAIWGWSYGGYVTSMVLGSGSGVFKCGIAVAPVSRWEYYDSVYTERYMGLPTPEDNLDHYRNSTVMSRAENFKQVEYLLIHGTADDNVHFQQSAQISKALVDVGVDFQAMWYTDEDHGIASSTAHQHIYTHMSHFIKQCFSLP

SMILES	inhibition (Rattus norvegicus [1]) [%]	Activity [2] [%]	inhibition [3] [%]	Activity [4]	inhibition (Rattus norvegicus [5]) [%]	EC50 [6] [µM]	Activity [7] [%]
COC(=O)[C@@H](NC(=O)OCc1ccccc1)c1cccc(NC(=O)CN2C(=O)c3ccccc3C2=O)c1	17.5	11.9	2.17	14.6%	–	–	–
COC(=O)[C@@H](NC(=O)OCc1ccccc1)c1cccc(NC(=O)CNc2ccc(S(=O)(=O)Nc3cc(C)on3)cc2)c1	11.8	18.9	5.87	27.9%	–	–	–
CCCOC(=O)[C@@H](NC(=O)OCc1ccccc1)c1cccc(NC(=O)CCl)c1	–	-17.1	–	-17.1%	–	–	–
COC(=O)[C@@H](NC(=O)OCc1ccccc1)c1cccc(NC(=O)CSc2nc3ccccc3[nH]2)c1	9.26	7.66	8.99	-9.41%	–	–	–
OCC(CO)N[C@H]1C[C@](O)(CO)[C@@H](O)[C@H](O)[C@H]1O	–	–	–	–	104	–	–
O=C(CN1C(=O)c2ccccc2C1=O)Nc1cccc([C@H](NC(=O)OCc2ccccc2)C(=O)O)c1	17.8	39.9	–	47.4%	–	–	–
CCNC(=O)[C@@H](NC(=O)OCc1ccccc1)c1cccc(NC(=O)CCl)c1	–	-20.1	–	-19.3%	–	–	–
COC(=O)[C@@H](NC(=O)OCc1ccccc1)c1cccc(NC(=O)CN2CCN(C(=O)OC(C)(C)C)CC2)c1	15.5	-8.27	-6.12	-10.9%	–	–	–
O=C(CCl)Nc1cccc([C@H](NC(=O)OCc2ccccc2)C(=O)NO)c1	–	-5.33	–	-4.96%	–	–	–
O=C(CSc1nc2ccccc2[nH]1)Nc1cccc([C@H](NC(=O)OCc2ccccc2)C(=O)O)c1	12.6	32.9	-7.54	39.4%	–	–	–
O=C(CCl)Nc1cccc([C@H](NC(=O)OCc2ccccc2)C(=O)O)c1	17.7	53.5	–	52.8% and 49.1%	–	–	–
CC(C)(C)OC(=O)N1CCN(CC(=O)Nc2cccc([C@H](NC(=O)OCc3ccccc3)C(=O)O)c2)CC1	13.7	21.4	5.26	27.5%	–	–	–
O=C(Cn1cnc2ccccc21)Nc1cccc([C@H](NC(=O)OCc2ccccc2)C(=O)O)c1	0.99	3.85	-0.74	4.3%	–	–	–
CCCCOC(=O)[C@@H](NC(=O)OCc1ccccc1)c1cccc(NC(=O)CCl)c1	–	-5.01	–	-5.58%	–	–	–
CNC(=O)[C@@H](NC(=O)OCc1ccccc1)c1cccc(NC(=O)CCl)c1	–	-18.8	–	-17.4%	–	–	–
CN(CCO)C(=O)[C@@H](NC(=O)OCc1ccccc1)c1cccc(NC(=O)CCl)c1	–	120	–	124%	–	8.97	208
Cc1cc(NS(=O)(=O)c2ccc(NCC(=O)Nc3cccc([C@H](NC(=O)OCc4ccccc4)C(=O)O)c3)cc2)no1	8.89	40.6	11.1	58.8%	–	–	–

Now from value to compound:

inhibition (Rattus norvegicus [1]) [%]	Activity [2] [%]	inhibition [3] [%]	Activity [4]	inhibition (Rattus norvegicus [5]) [%]	EC50 [6] [µM]	Activity [7] [%]	SMILES
–	19.5	–	22.4%	–	–	–	COC(=O)[C@@H](NC(=O)OCc1ccccc1)c1cccc(NC(=O)Cn2nnnc2SC)c1
–	18.3	–	16.5%	–	–	–	CCC(=O)Nc1cccc([C@H](NC(=O)OCc2ccccc2)C(=O)OC)c1
–	-17.1	–	-16.1%	–	–	–	COCC(=O)Nc1cccc([C@H](NC(=O)OCc2ccccc2)C(=O)OC)c1
–	12	–	11.2%	–	–	–	CCCC(=O)Nc1cccc([C@H](NC(=O)OCc2ccccc2)C(=O)OC)c1
–	1.36	–	1.49%	–	–	–	COC(=O)[C@@H](NC(=O)OCc1ccccc1)c1cccc(NC(=O)Cn2nc(C)cc2C)c1
–	-3.55	–	-3.5%	–	–	–	COC(=O)[C@@H](NC(=O)OCc1ccccc1)c1cccc(NC(=O)CCCl)c1
–	24.9	–	21.6%	–	–	–	COC(=O)[C@@H](NC(=O)OCc1ccccc1)c1cccc(NC(C)=O)c1
14.6	105 to 179	16.1	100%	–	22.4	–	COC(=O)[C@@H](NC(=O)OCc1ccccc1)c1cccc(NC(=O)CCl)c1
–	11.6	–	11.8%	–	–	–	COC(=O)[C@@H](NC(=O)OCc1ccccc1)c1cccc(NC(=O)CCCCl)c1
–	14.4	–	14.9%	–	–	–	COC(=O)[C@@H](NC(=O)OCc1ccccc1)c1cccc(NC(=O)Cn2cnnn2)c1
2.91	3.93	-0.31	4.52%	–	–	–	COC(=O)[C@@H](NC(=O)OCc1ccccc1)c1cccc(NC(=O)Cn2cnc3ccccc32)c1
–	14.4	–	15.4%	–	–	–	COC(=O)[C@@H](NC(=O)OCc1ccccc1)c1cccc(NC(=O)Cn2nnnc2C)c1
–	-24.8	–	-23.9%	–	–	–	CCOC(=O)[C@@H](NC(=O)OCc1ccccc1)c1cccc(NC(=O)CCl)c1
